{
  "source": "patent US7192974B2",
  "about": "“Hydroxymethyl substituted dihydroisoxazole derivatives useful as antibiotic agents” (AstraZeneca AB, priority 2003, dated 2007)",
  "note": "Where a name gives a salt, the structure may show the parent alone.",
  "data": [
    {"units": {"melting point": "°C"}, "values": [
      {"smiles": "COCC(=O)OC[C@@H]1CC(c2ccc(-c3ccc(N4C[C@H](Cn5ccnn5)OC4=O)cc3F)cn2)=NO1", "note": "[Example 12, [(5S)-3-(5-{2-Fluoro-4-[(5R)-2-oxo-5-(1H-1,2,3-triazol-1-ylmethyl)-1,3-oxazolidin-3-yl]phenyl}pyridin-2-yl)-4,5-dihydroisoxazol-5-yl]methyl methoxyacetate]", "melting point": 170},
      {"smiles": "COC(=O)N(C)CCCCCC(=O)OC[C@@H]1CC(c2ccc(-c3ccc(N4C[C@H](Cn5ccnn5)OC4=O)cc3F)cn2)=NO1", "note": "[Example 36, [(5S)-3-(5-{2-fluoro-4-[(5R)-2-oxo-5-(1H-1,2,3-triazol-1-ylmethyl)-1,3-oxazolidin-3-yl]phenyl}pyridin-2-yl)-4,5-dihydroisoxazol-5-yl]methyl 6-[(methoxycarbonyl)(methyl)amino]hexanoate]", "melting point": 103},
      {"smiles": "COCCCOC(=O)OC[C@@H]1CC(c2ccc(-c3ccc(N4C[C@H](Cn5ccnn5)OC4=O)cc3F)cn2)=NO1", "note": "[Example 29, (5S)-3-(5-{2-fluoro-4-[(5R)-2-oxo-5-(1H-1,2,3-triazol-1-ylmethyl)-1,3-oxazolidin-3-yl]phenyl}pyridin-2-yl)-4,5-dihydroisoxazol-5-yl]methyl 3-methoxypropyl carbonate]", "melting point": 142},
      {"smiles": "CN(C)CCCC(=O)OC[C@@H]1CC(c2ccc(-c3ccc(N4C[C@H](Cn5ccnn5)OC4=O)cc3F)cn2)=NO1", "note": "[Example 9, [(5S)-3-(5-{2-Fluoro-4-[(5R)-2-oxo-5-(1H-1,2,3-triazol-1-ylmethyl)-1,3-oxazolidin-3-yl]phenyl}pyridin-2-yl)-4,5-dihydroisoxazol-5-yl]methyl 4-(dimethylamino)butanoate]", "melting point": 148},
      {"smiles": "CCN(CC)CCC(=O)OC[C@@H]1CC(c2ccc(-c3ccc(N4C[C@H](Cn5ccnn5)OC4=O)cc3F)cn2)=NO1", "note": "[Example 11, [(5S)-3-(5-{2-Fluoro-4-[(5R)-2-oxo-5-(1H-1,2,3-triazol-1-ylmethyl)-1,3-oxazolidin-3-yl]phenyl}pyridin-2-yl)-4,5-dihydroisoxazol-5-yl]methyl N,N-diethyl-β-alaninate]", "melting point": 167},
      {"smiles": "O=C(OC[C@@H]1CC(c2ccc(-c3ccc(N4C[C@H](Cn5ccnn5)OC4=O)cc3F)cn2)=NO1)c1ccc[n+]([O-])c1", "note": "[Example 25, [(5S)-3-(5-{2-fluoro-4-[(5R)-2-oxo-5-(1H-1,2,3-triazol-1-ylmethyl)-1,3-oxazolidin-3-yl]phenyl}pyridin-2-yl)-4,5-dihydroisoxazol-5-yl]methyl nicotinate 1-oxide]", "melting point": 255},
      {"smiles": "C[N+](C)(C)CCOC(=O)OC[C@@H]1CC(c2ccc(-c3ccc(N4C[C@H](Cn5ccnn5)OC4=O)cc3F)cn2)=NO1", "note": "(as salt: chloride) [Example 32, 2-[({[(5S)-3-(5-{2-fluoro-4-[(5R)-2-oxo-5-(1H-1,2,3-triazol-1-ylmethyl)-1,3-oxazolidin-3-yl]phenyl}pyridin-2-yl)-4,5-dihydrolsoxazol-5-yl]methoxy}carbonyl)oxy]-N,N,N-trimethylethanaminium chloride]", "melting point": "180 to 190"},
      {"smiles": "CN(C)CC(=O)OCC1CC(c2ccc(-c3ccc(N4C[C@H](Cn5ccnn5)OC4=O)cc3F)cn2)=NO1", "note": "(stereo partly drawn) (as salt: hydrochloride) [Example 26, [3-(5-{2-fluoro-4-[(5R)-2-oxo-5-(1H-1,2,3-triazol-1-ylmethyl)-1,3-oxazolidin-3-yl]phenyl}pyridin-2-yl)-4,5-dihydroisoxazol-5-yl]methyl N,N-dimethylglycinate]", "melting point": "175 to 180"},
      {"smiles": "CN(CCCCC(=O)OC[C@@H]1CC(c2ccc(-c3ccc(N4C[C@H](Cn5ccnn5)OC4=O)cc3F)cn2)=NO1)C(=O)OC(C)(C)C", "note": "[Example 34, [(5S)-3-(5-{2-fluoro-4-[(5R)-2-oxo-5-(1H-1,2,3-triazol-1-ylmethyl)-1,3-oxazolidin-3-yl]phenyl}pyridin-2-yl)-4,5-dihydroisoxazol-5-yl]methyl 5-[(tert-butoxycarbonyl)(methyl)amino]pentanoate]", "melting point": 121},
      {"smiles": "COCCOC(=O)OC[C@@H]1CC(c2ccc(-c3ccc(N4C[C@H](Cn5ccnn5)OC4=O)cc3F)cn2)=NO1", "note": "[Example 15, [(5S)-3-(5-{2-Fluoro-4-[(5R)-2-oxo-5-(1H-1,2,3-triazol-1-ylmethyl)-1,3-oxazolidin-3-yl]phenyl}pyridin-2-yl)-4,5-dihydroisoxazol-5-yl]methyl 2-methoxyethyl carbonate]", "melting point": 112},
      {"smiles": "CCOC(=O)NCCCCC(=O)OCC1CC(c2ccc(-c3ccc(N4C[C@H](Cn5ccnn5)OC4=O)cc3F)cn2)=NO1", "note": "(stereo partly drawn) [Example 27, [(5S)-3-(5-{2-fluoro-4-[(5R)-2-oxo-5-(1H-1,23-triazol-1-ylmethyl)-1,3-oxazolidin-3-yl]phenyl}pyridin-2-yl)-4,5-dihydroisoxazol-5-yl]methyl 5-[(ethoxycarbonyl)amino]pentanoate]", "melting point": 183},
      {"smiles": "O=C(OC[C@@H]1CC(c2ccc(-c3ccc(N4C[C@H](Cn5ccnn5)OC4=O)cc3F)cn2)=NO1)c1cncnc1", "note": "[Example 31]", "melting point": "253 to 264"},
      {"smiles": "COC(=O)N(C)CCCC(=O)OC[C@@H]1CC(c2ccc(-c3ccc(N4C[C@H](Cn5ccnn5)OC4=O)cc3F)cn2)=NO1", "note": "[Example 35, [(5S)-3-(5-{2-fluoro-4-[(5R)-2-oxo-5-(1H-1,2,3-triazol-1-ylmethyl)-1,3-oxazolidin-3-yl]phenyl}pyridin-2-yl)-4,5-dihydroisoxazol-5-yl]methyl 4-[(methoxycarbonyl)(methyl)amino]butanoate]", "melting point": 135},
      {"smiles": "O=C(OC[C@@H]1CC(c2ccc(-c3ccc(N4C[C@H](Cn5ccnn5)OC4=O)cc3F)cn2)=NO1)c1cnccn1", "note": "[Example 30, [(5S)-3-(5-{2-fluoro-4-[(5R)-2-oxo-5-(1H-1,2,3-triazol-1-ylmethyl)-1,3-oxazolidin-3-yl]phenyl}pyridin-2-yl)-4,5-dihydroisoxazol-5-yl]methylpyrazine-2-carboxylate]", "melting point": "205 to 226"},
      {"smiles": "NCCC(=O)OC[C@@H]1CC(c2ccc(-c3ccc(N4C[C@H](Cn5ccnn5)OC4=O)cc3F)cn2)=NO1", "note": "(as salt: hydrochloride) [Example 8, [(5S)-3-(5-{2-Fluoro-4-[(5R)-2-oxo-5-(1H-1,2,3-triazol-1-ylmethyl)-1,3-oxazolidin-3-yl]phenyl}pyridin-2-yl)-4,5-dihydroisoxazol-5-yl]methyl β-alaninate]", "melting point": "68 to 75"},
      {"smiles": "CN(C)CC(=O)N(C)CCCCC(=O)OC[C@@H]1CC(c2ccc(-c3ccc(N4C[C@H](Cn5ccnn5)OC4=O)cc3F)cn2)=NO1", "note": "(as salt: hydrochloride) [Example 38, [(5S)-3-(5-{2-fluoro-4-[(5R)-2-oxo-5-(1H-1,2,3-triazol-1-ylmethyl)-1,3-oxazolidin-3-yl]phenyl}pyridin-2-yl)-4,5-dihydroisoxazol-5-yl]methyl 5-[(N,N-dimethylglycyl)(methyl)amino]pentanoate]", "melting point": 133},
      {"smiles": "COC(=O)N(C)CCCCC(=O)OC[C@@H]1CC(c2ccc(-c3ccc(N4C[C@H](Cn5ccnn5)OC4=O)cc3F)cn2)=NO1", "note": "[Example 33, [(5S)-3-(5-{2-fluoro-4-[(5R)-2-oxo-5-(1H-1,2,3-triazol-1-ylmethyl)-1,3-oxazolidin-3-yl]phenyl}pyridin-2-yl)-4,5-dihydroisoxazol-5-yl]methyl 5-[(methoxycarbonyl)(methyl)amino]pentanoate]", "melting point": 82},
      {"smiles": "COC(=O)NCCCCC(=O)OC[C@@H]1CC(c2ccc(-c3ccc(N4C[C@H](Cn5ccnn5)OC4=O)cc3F)cn2)=NO1", "note": "[Example 10, [(5S)-3-(5-{2-Fluoro-4-[(5R)-2-oxo-5-(1H-1,2,3-triazol-1-ylmethyl)-1,3-oxazolidin-3-yl]phenyl}pyridin-2-yl)-4,5-dihydroisoxazol-5-yl]methyl 5-[(methoxycarbonyl)amino]pentanoate]", "melting point": 90},
      {"smiles": "COCCCC(=O)OC[C@@H]1CC(c2ccc(-c3ccc(N4C[C@H](Cn5ccnn5)OC4=O)cc3F)cn2)=NO1", "note": "[Example 17, [(5S)-3-(5-{2-Fluoro-4-[(5R)-2-oxo-5-(1H-1,2,3-triazol-1-ylmethyl)-1,3-oxazolidin-3-yl]phenyl}pyridin-2-yl)-4,5-dihydroisoxazol-5-yl]methyl 4-methoxybutanoate]", "melting point": 154},
      {"smiles": "CNCCCCC(=O)OC[C@@H]1CC(c2ccc(-c3ccc(N4C[C@H](Cn5ccnn5)OC4=O)cc3F)cn2)=NO1", "note": "(as salt: hydrochloride) [Example 37, [(5S)-3-(5-{2-fluoro-4-[(5R)-2-oxo-5-(1H-1,2,3-triazol-1-ylmethyl)-1,3-oxazolidin-3-yl]phenyl}pyridin-2-yl)-4,5-dihydroisoxazol-5-yl]methyl 5-(methylamino)pentanoate]", "melting point": 184},
      {"smiles": "CCOC(=O)CCCCC(=O)OC[C@@H]1CC(c2ccc(-c3ccc(N4C[C@H](Cn5ccnn5)OC4=O)cc3F)cn2)=NO1", "note": "[Example 6, Ethyl [(5S)-3-(5-{2-fluoro-4-[(5R)-2-oxo-5-(1H-1,2,3-triazol-1-ylmethyl)-1,3oxazolidin-3-yl]phenyl}pyridin-2-yl)-4,5-dihydroisoxazol-5-yl]methyl hexanedioate]", "melting point": 88},
      {"smiles": "COC(=O)OC[C@@H]1CC(c2ccc(-c3ccc(N4C[C@H](Cn5ccnn5)OC4=O)cc3F)cn2)=NO1", "note": "[Example 14, [(5S)-3-(5-{2-Fluoro-4-[(5R)-2-oxo-5-(1H-1,2,3-triazol-1-ylmethyl)-1,3-oxazolidin-3-yl]phenyl}pyridin-2-yl)-4,5-dihydroisoxazol-5-yl]methyl methyl carbonate]", "melting point": 205},
      {"smiles": "COCCC(=O)OC[C@@H]1CC(c2ccc(-c3ccc(N4C[C@H](Cn5ccnn5)OC4=O)cc3F)cn2)=NO1", "note": "[Example 13, [(5S)-3-(5-{2-Fluoro-4-[(5R)-2-oxo-5-(1H-1,2,3-triazol-1-ylmethyl)-1,3-oxazolidin-3-yl]phenyl}pyridin-2-yl)-4,5-dihydroisoxazol-5-yl]methyl 3-methoxypropanoate]", "melting point": 149}
    ]}
  ]
}
